In US10266528B2, “2-oxo-imidazopyridines as reversible BTK inhibitors and uses thereof” (Merck Patent GmbH, priority 2016, dated 2019) one finds IC50 data, which are given here for 22 molecules.

pIC50: −log10 of the molar value.

Assay [1] concerns the target full-length human BTK (Homo sapiens (Human), UniProt Q06187). Kind of assay: Microfluidic off-chip mobility shift kinase assay against BTK enzyme. The settings on record: 90 min at 27° C. Type of assay: biochemical. How it is done: Example 23. Microfluidic Off-Chip Mobility Shift Assay Protocol for Potency Assessment Against BTK Enzyme
The protocol below describes microfluidic, off-chip mobility shift kinase assay to measure inherent potency of compounds against BTK enzyme.
5 uL of enzyme buffer and 7.5 uL of ATP/kinKDR peptide substrate mix were added to Matrix (#115304) 384-well, sterile, polypropylene plates (Thermo Fisher Scientific, Hudson, N.H.) with 125 nL of serially diluted compounds prepared in 100% DMSO, and incubated for 90 min. at 27° C. Following the incubation period, reactions were stopped by adding 60 uL stop buffer consisting of 100 mM HEPES, pH 7.5, 0.015% Brij-35 (30%), 0.277% Coating Reagent #3 (Caliper Life Sciences, Mountain View, Calif.), 5% DMSO. Stopped reactions were monitored at −2 PSI, −3000 V/−700 V in a LabChip 3000 plate reader from Caliper Life Sciences, a PerkinElmer Company (Hopkinton, Mass.), and the activity was measured by off-chip mobility shift assay measuring the charge/mass difference between substrate and product resulting from peptide phosphorilation. IC50 and efficacy were determined by plotting log [Inhibitor] vs. % Activity in GeneData Screener (Basel, Switzerland).

Assay [2] has as its system anti-IgM-induced expression of CD69 in human peripheral blood mononuclear cells (PBMCs). Kind of assay: PBMC IC50 assay: anti-IgM-induced CD69 expression on CD19 positive cells. The settings on record: anti-IgM stimulation, CD69 expression on CD19 positive B cells. Type of assay: cell-based. The protocol: Btk is critical for mediating the signalling of B cell antigen receptor (BCR) after anti-IgM stimulation. Based on this principle, a functional cell-based assay was established to determine the potency of compounds at inhibiting anti-IgM-induced expression of CD69, a downstream BCR signaling event, in freshly isolated human peripheral blood mononuclear cells (PBMCs). In the assay, a 90 μl PBMC suspension containing 2.5×10^5 cells was pre-treated with 10 μl of test compound at various concentrations for an hour, and then incubated overnight (approximately 16-18 hours) with 5 μl 420 μg/ml affiniPure F(ab′)2 fragment goat anti-human IgM Fc fragment per well (Dianova, Cat. No.: 109-006-129). After the incubation, the cells were washed and immunostained with an APC-labeled mouse anti-human CD69 (BD Biosciences; clone: FN50), a PerCP-Cy5.5 labelled mouse anti-human CD19 (BD Biosciences; clone: SJ25C1) and a FITC-labelled mouse anti-human CD3 (BD Biosciences; clone: HIT3a), and fixed for flow cytometric analysis of CD69 expression on CD19 positive cells (B cells). The percentage of CD69 expressing CD19 positive cells was plotted against the concentrations of test compounds to obtain a concentration response curve, and calculate an IC50 value as a measure of the potency of test compounds in the assay.

Assay [3] deals with WB. Kind of assay: WB IC50 (no method described). Type of assay: cell-based.

Chain of full-length human BTK (Q06187 whole entry): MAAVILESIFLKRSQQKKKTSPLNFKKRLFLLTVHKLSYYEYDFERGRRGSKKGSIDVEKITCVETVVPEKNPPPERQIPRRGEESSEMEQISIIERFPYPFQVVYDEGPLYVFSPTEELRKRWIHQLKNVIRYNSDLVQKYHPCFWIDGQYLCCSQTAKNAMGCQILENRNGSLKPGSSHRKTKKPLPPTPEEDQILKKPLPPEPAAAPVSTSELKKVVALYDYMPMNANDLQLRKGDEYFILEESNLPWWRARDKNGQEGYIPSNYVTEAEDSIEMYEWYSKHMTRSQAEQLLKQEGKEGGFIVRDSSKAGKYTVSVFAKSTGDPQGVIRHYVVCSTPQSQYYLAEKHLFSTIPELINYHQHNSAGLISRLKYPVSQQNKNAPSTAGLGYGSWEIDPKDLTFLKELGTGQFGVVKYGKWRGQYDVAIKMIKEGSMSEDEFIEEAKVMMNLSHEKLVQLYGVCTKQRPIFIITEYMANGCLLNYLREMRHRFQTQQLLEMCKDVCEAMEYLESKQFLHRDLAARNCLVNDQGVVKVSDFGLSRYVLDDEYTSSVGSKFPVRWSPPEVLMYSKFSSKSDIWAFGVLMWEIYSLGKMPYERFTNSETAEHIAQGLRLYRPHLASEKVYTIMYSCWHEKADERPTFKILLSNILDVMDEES

With `CC(C)(C)c1noc(C(=O)NC2CCCCc3cc(-c4ccnc5[nH]c(=O)[nH]c45)ccc32)n1` (single isomer, unassigned) [Compound 13, 3-tert-Butyl-[1,2,4]oxadiazole-5-carboxylic Acid [2-(2-oxo-2,3-dihydro-1H-imidazo[4,5-b]pyridin-7-yl)-6,7,8,9-tetrahydro-5H-benzocyclohepten-5-yl]-amide], the pIC50 in assay [1] was 7.00 to 8.00.

Consider `CC(C)(C)c1noc(C(=O)NCc2ccc(-c3ccnc4[nH]c(=O)[nH]c34)cc2C(F)(F)F)n1` [Compound 1, 3-tert-Butyl-[1,2,4]oxadiazole-5-carboxylic Acid 4-(2-oxo-2,3-dihydro-1H-imidazo[4,5-b]pyridine-7-yl)-2-trifluoromethyl-benzylamide], for which the pIC50 in assay [2] (Homo sapiens, PBMC) was 6.00 to 7.00; in assay [3] it was 6.00 to 7.00; in assay [1] it was over 8.00.

`CC(C)(C)c1noc(C(=O)NCc2ccc(-c3ccnc4[nH]c(=O)[nH]c34)cc2F)n1` [Compound 2, 3-tert-Butyl-[1,2,4]oxadiazole-5-carboxylic Acid 2-fluoro-4-(2-oxo-2,3-dihydro-1H-imidazo[4,5-b]pyridine-7-yl)-benzylamide]: the pIC50 is 6.00 to 7.00 in assay [2] (Homo sapiens, PBMC); 6.00 to 7.00 in assay [3]; over 8.00 in assay [1].

Take `CC(C)(C)c1nc(C(=O)NCc2ccc(-c3ccnc4[nH]c(=O)[nH]c34)cc2F)no1` [Compound 3, 5-tert-Butyl-[1,2,4]oxadiazole-3-carboxylic Acid 2-fluoro-4-(2-oxo-2,3-dihydro-1H-imidazo[4,5-b]pyridin-7-yl)-benzylamide]: the pIC50 in assay [1] was 7.00 to 8.00.

As to `O=C(NCc1ccc(-c2ccnc3[nH]c(=O)[nH]c23)cc1F)NCC1CC2CCC1C2` (centres unmarked) [Compound 4, 1-Bicyclo[2.2.1]hept-2-ylmethyl-3-[2-fluoro-4-(2-oxo-2,3-dihydro-1H-imidazo[4,5-b]pyridin-7-yl)-benzyl]-urea], the pIC50 was under 6.00 in assay [2] (Homo sapiens, PBMC) and 7.00 to 8.00 in assay [1].

For `CC(C)(C)C1CCN(C(=O)NCc2ccc(-c3ccnc4[nH]c(=O)[nH]c34)cc2F)C1` (centres unmarked) [Compound 5, 3-tert-Butyl-pyrrolidine-1-carboxylic Acid 2-fluoro-4-(2-oxo-2,3-dihydro-1H-imidazo[4,5-b]pyridin-7-yl)-benzylamide], the pIC50 in assay [1] is 7.00 to 8.00.

`CC(C)(C)c1nc(C(=O)NCc2ccc(-c3ccnc4[nH]c(=O)[nH]c34)cc2F)cs1` [Compound 6, 2-tert-Butyl-thiazole-4-carboxylic Acid 2-fluoro-4-(2-oxo-2,3-dihydro-1H-imidazo[4,5-b]pyridin-7-yl)-benzylamide]: in assay [1], the pIC50 is 7.00 to 8.00.

Regarding `CC(C)(C)c1nnc(C(=O)NCc2ccc(-c3ccnc4[nH]c(=O)[nH]c34)cc2F)o1` [Compound 7, 5-tert-Butyl-[1,3,4]oxadiazole-2-carboxylic Acid 2-fluoro-4-(2-oxo-2,3-dihydro-1H-imidazo[4,5-b]pyridin-7-yl)-benzylamide], the pIC50 in assay [1] was 6.00 to 7.00.

For `CC(C)(C)c1ccc(C(=O)NCc2ccc(-c3ccnc4[nH]c(=O)[nH]c34)cc2F)cn1` [Compound 8, 6-tert-Butyl-N-[2-fluoro-4-(2-oxo-2,3-dihydro-1H-imidazo[4,5-b]pyridin-7-yl)-benzyl]-nicotinamide], in assay [1], the pIC50 was under 6.00.

In the case of `CC(C)(O)c1ccc(C(=O)NCc2ccc(-c3ccnc4[nH]c(=O)[nH]c34)cc2F)cc1` [Compound 9, N-[2-Fluoro-4-(2-oxo-2,3-dihydro-1H-imidazo[4,5-b]pyridin-7-yl)-benzyl]-4-(1-hydroxy-1-methyl-ethyl)-benzamide], in assay [1], the pIC50 was under 6.00.

For the molecule `CC(C)(C)c1noc(C(=O)NCc2ccc(-c3ccnc4[nH]c(=O)[nH]c34)c(CO)c2)n1` [Compound 10, 3-tert-Butyl-[1,2,4]oxadiazole-5-carboxylic Acid 3-hydroxymethyl-4-(2-oxo-2,3-dihydro-1H-imidazo[4,5-b]pyridin-7-yl)-benzylamide], the pIC50 in assay [1] is under 6.00.

As to `CC(C)(C)c1noc(C(=O)NC2CCCCc3cc(-c4ccnc5[nH]c(=O)[nH]c45)ccc32)n1` (centres unmarked) [Compound 11, 3-tert-Butyl-[1,2,4]oxadiazole-5-carboxylic Acid [2-(2-oxo-2,3-dihydro-1H-imidazo[4,5-b]pyridin-7-yl)-6,7,8,9-tetrahydro-5H-benzocyclohepten-5-yl]-amide], the pIC50 is 7.00 to 8.00 in assay [2] and over 8.00 in assay [1].

In the case of `CC(C)(C)c1noc(C(=O)NC2CCCCc3cc(-c4ccnc5[nH]c(=O)[nH]c45)ccc32)n1` (centres unmarked) [Compound 12, 3-tert-Butyl-[1,2,4]oxadiazole-5-carboxylic Acid [2-(2-oxo-2,3-dihydro-1H-imidazo[4,5-b]pyridin-7-yl)-6,7,8,9-tetrahydro-5H-benzocyclohepten-5-yl]-amide], the pIC50 in assay [2] (Homo sapiens, PBMC) was over 8.00; in assay [1], over 8.00.

Regarding `CC(C)(C)c1cc(C(=O)NC2CCCCc3cc(-c4ccnc5[nH]c(=O)[nH]c45)ccc32)on1` (centres unmarked) [Compound 14, Butyl-isoxazole-5-carboxylic Acid [2-(2-oxo-2,3-dihydro-1H-imidazo[4,5-b]pyridin-7-yl)-6,7,8,9-tetrahydro-5H-benzocyclohepten-5-yl]-amide], the pIC50 in assay [2] (Homo sapiens, PBMC) is 6.00 to 7.00.

On to `CC(C)(C)c1noc(C(=O)NC2CCCc3cc(-c4ccnc5[nH]c(=O)[nH]c45)ccc32)n1` (centres unmarked) [Compound 15, 3-tert-Butyl-[1,2,4]oxadiazole-5-carboxylic Acid [6-(2-oxo-2,3-dihydro-1H-imidazo[4,5-b]pyridin-7-yl)-1,2,3,4-tetrahydro-naphthalen-1-yl]-amide], for which, in assay [1], the pIC50 is 7.00 to 8.00.

Regarding `Cc1cc(-c2ccnc3[nH]c(=O)[nH]c23)c(F)cc1CNC(=O)c1nc(C(C)(C)C)no1` [Compound 16, 3-tert-Butyl-[1,2,4]oxadiazole-5-carboxylic Acid 5-fluoro-2-methyl-4-(2-oxo-2,3-dihydro-1H-imidazo[4,5-b]pyridin-7-yl)-benzylamide], the pIC50 in assay [2] (Homo sapiens, PBMC) was 6.00 to 7.00; in assay [1], over 8.00.

With `CC(C)(C)c1noc(C(=O)NCc2ccc(-c3ccnc4[nH]c(=O)[nH]c34)cc2C2CC2)n1` [Compound 17, 3-tert-Butyl-[1,2,4]oxadiazole-5-carboxylic Acid 2-cyclopropyl-4-(2-oxo-2,3-dihydro-1H-imidazo[4,5-b]pyridin-7-yl)-benzylamide], the pIC50 in assay [2] (Homo sapiens, PBMC) was 6.00 to 7.00; in assay [1] it was over 8.00.

With `CC1(c2noc(C(=O)NCc3ccc(-c4ccnc5[nH]c(=O)[nH]c45)cc3C(F)(F)F)n2)CC1` [Compound 18, 3-(1-Methyl-cyclopropyl)-[1,2,4]oxadiazole-5-carboxylic Acid 4-(2-oxo-2,3-dihydro-1H-imidazo[4,5-b]pyridin-7-yl)-2-trifluoromethyl-benzylamide], the pIC50 was 7.00 to 8.00 in assay [2] (Homo sapiens, PBMC); 6.00 to 7.00 in assay [3]; over 8.00 in assay [1].

As to `CC(C)(C)c1nc(C(=O)NCc2ccc(-c3ccnc4[nH]c(=O)[nH]c34)cc2C(F)(F)F)no1` [Compound 19, 5-tert-Butyl-[1,2,4]oxadiazole-3-carboxylic Acid 4-(2-oxo-2,3-dihydro-1H-imidazo[4,5-b]pyridin-7-yl)-2-trifluoromethyl-benzylamide], the pIC50 in assay [1] is over 8.00.

As for `CC1(C)Cc2cc3n(c2C1)CCN(c1cc(F)cc(-c2ccnc4[nH]c(=O)[nH]c24)c1CO)C3=O` [Compound 21, 2-[5-Fluoro-2-hydroxymethyl-3-(2-oxo-2,3-dihydro-1H-imidazo[4,5-b]pyridin-7-yl)-phenyl]-7,7-dimethyl-3,4,7,8-tetrahydro-2H,6H-cyclopenta[4,5]pyrrolo[1,2-a]pyrazin-1-one], in assay [1], the pIC50 is over 8.00.

`CC1(C)Cc2cc3n(c2C1)CCN(c1cc(F)cc(-c2ccnc4[nH]c(=O)[nH]c24)c1)C3=O` [Compound 22, 2-[3-Fluoro-5-(2-oxo-2,3-dihydro-1H-imidazo[4,5-b]pyridin-7-yl)-phenyl]-7,7-dimethyl-3,4,7,8-tetrahydro-2H,6H-cyclopenta[4,5]pyrrolo[1,2-a]pyrazin-1-one]: the pIC50 in assay [1] was 7.00 to 8.00.

In the case of `Cc1cc(-c2ccnc3[nH]c(=O)[nH]c23)ccc1CNC(=O)c1nc(C(C)(C)C)no1` [Compound 23, 3-tert-Butyl-[1,2,4]oxadiazole-5-carboxylic Acid 2-methyl-4-(2-oxo-2,3-dihydro-1H-imidazo[4,5-b]pyridin-7-yl)-benzylamide], the pIC50 in assay [2] (Homo sapiens, PBMC) was 7.00 to 8.00; in assay [3], 7.00 to 8.00; in assay [1], over 8.00.
